Measurements as given in PubChem BioAssay (NCI).
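GI50 = concentration required for 50% inhibition of growth. TGI is the concentration that stops growth completely.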

Tests used:
Assay in all cases: DTP human tumour cell line panel, 384-well format
MDA-MB-231 breast = test system: MDA-MB-231 breast
U251 glioblastoma = test system: U251 glioblastoma
NCI-H23 lung = test system: NCI-H23 lung
NCI-H460 NSCLC = test system: NCI-H460 NSCLC
SNB-75 CNS = test system: SNB-75 CNS
NCI/ADR-RES ovarian = test system: NCI/ADR-RES ovarian
MOLT-4 leukemia = test system: MOLT-4 leukemia
IGROV1 ovarian = test system: IGROV1 ovarian
MDA-MB-468 breast = test system: MDA-MB-468 breast
HL-60(TB) leukemia = test system: HL-60(TB) leukemia
OVCAR-4 ovarian = test system: OVCAR-4 ovarian
A498 renal = test system: A498 renal
PC-3 prostate = test system: PC-3 prostate
K-562 leukemia = test system: K-562 leukemia
UO-31 renal = test system: UO-31 renal
NCI-H226 lung = test system: NCI-H226 lung
SF-268 CNS = test system: SF-268 CNS
UACC-62 melanoma = test system: UACC-62 melanoma
SK-OV-3 ovarian = test system: SK-OV-3 ovarian
RPMI-8226 leukemia = test system: RPMI-8226 leukemia
SF-539 CNS = test system: SF-539 CNS
BT-549 breast = test system: BT-549 breast
KM12 colon = test system: KM12 colon
SF-295 CNS = test system: SF-295 CNS
SN12C renal = test system: SN12C renal
RXF 393 renal = test system: RXF 393 renal
SK-MEL-28 melanoma = test system: SK-MEL-28 melanoma
TK-10 renal = test system: TK-10 renal
NCI-H522 lung = test system: NCI-H522 lung
HOP-92 NSCLC = test system: HOP-92 NSCLC
SNB-19 CNS = test system: SNB-19 CNS
HOP-62 NSCLC = test system: HOP-62 NSCLC
OVCAR-8 ovarian = test system: OVCAR-8 ovarian
SK-MEL-5 melanoma = test system: SK-MEL-5 melanoma
M14 melanoma = test system: M14 melanoma
MDA-MB-435 melanoma = test system: MDA-MB-435 melanoma
NCI-H322M lung = test system: NCI-H322M lung
DU-145 prostate = test system: DU-145 prostate
HT29 colon = test system: HT29 colon
HS 578T breast = test system: HS 578T breast
CAKI-1 renal = test system: CAKI-1 renal
ACHN renal = test system: ACHN renal
T-47D breast = test system: T-47D breast
HCT-116 colon = test system: HCT-116 colon
OVCAR-3 ovarian = test system: OVCAR-3 ovarian
SR leukemia = test system: SR leukemia
786-0 renal = test system: 786-0 renal
CCRF-CEM leukemia = test system: CCRF-CEM leukemia
A549 NSCLC = test system: A549 NSCLC
MALME-3M melanoma = test system: MALME-3M melanoma
SW-620 colon = test system: SW-620 colon
UACC-257 melanoma = test system: UACC-257 melanoma
HCT-15 colon = test system: HCT-15 colon
COLO 205 colon = test system: COLO 205 colon
EKVX NSCLC = test system: EKVX NSCLC
LOX IMVI melanoma = test system: LOX IMVI melanoma

`COc1cc(-c2cnn(C)c2)ccc1Nc1ncc2ccnc(N[C@@H](C)C(C)(C)C)c2n1` was tested, and the GI50 (MDA-MB-231 breast) was 3 µM, the TGI (MDA-MB-231 breast) was > 100 µM and the GI50 (U251 glioblastoma) was 2.09 µM. The TGI (U251 glioblastoma) was > 100 µM, the GI50 (NCI-H23 lung) was 2.41 µM and the TGI (NCI-H23 lung) was > 100 µM. The GI50 (NCI-H460 NSCLC) was 0.0673 µM, the TGI (NCI-H460 NSCLC) was > 100 µM and the GI50 (SNB-75 CNS) was 1.31 µM. For the same compound, the TGI (SNB-75 CNS) was > 100 µM, the GI50 (NCI/ADR-RES ovarian) was 0.442 µM and the TGI (NCI/ADR-RES ovarian) was > 100 µM. For the same compound, the GI50 (MOLT-4 leukemia) was 0.026 µM, the TGI (MOLT-4 leukemia) was 0.0647 µM and the GI50 (IGROV1 ovarian) was > 100 µM. The TGI (IGROV1 ovarian) was > 100 µM, the GI50 (MDA-MB-468 breast) was 0.486 µM and the TGI (MDA-MB-468 breast) was > 100 µM. For the same compound, the GI50 (HL-60(TB) leukemia) was 0.11 µM, the TGI (HL-60(TB) leukemia) was 0.318 µM and the GI50 (OVCAR-4 ovarian) was > 100 µM. For the same compound, the TGI (OVCAR-4 ovarian) was > 100 µM, the GI50 (A498 renal) was 0.505 µM and the TGI (A498 renal) was > 100 µM. The GI50 (PC-3 prostate) was > 100 µM, the TGI (PC-3 prostate) was > 100 µM and the GI50 (K-562 leukemia) was 0.878 µM. For the same compound, the TGI (K-562 leukemia) was > 100 µM, the GI50 (UO-31 renal) was 14.1 µM and the TGI (UO-31 renal) was > 100 µM. The GI50 (NCI-H226 lung) was > 100 µM, the TGI (NCI-H226 lung) was > 100 µM and the GI50 (SF-268 CNS) was 2.08 µM. The TGI (SF-268 CNS) was > 100 µM, the GI50 (UACC-62 melanoma) was 7.46 µM and the TGI (UACC-62 melanoma) was 88.1 µM. The GI50 (SK-OV-3 ovarian) was > 100 µM, the TGI (SK-OV-3 ovarian) was > 100 µM and the GI50 (RPMI-8226 leukemia) was 0.302 µM. The TGI (RPMI-8226 leukemia) was > 100 µM, the GI50 (SF-539 CNS) was 0.476 µM and the TGI (SF-539 CNS) was > 100 µM. The GI50 (BT-549 breast) was 53.6 µM, the TGI (BT-549 breast) was > 100 µM and the GI50 (KM12 colon) was 0.0699 µM. For the same compound, the TGI (KM12 colon) was > 100 µM, the GI50 (SF-295 CNS) was 3.54 µM and the TGI (SF-295 CNS) was > 100 µM. For the same compound, the GI50 (SN12C renal) was > 100 µM, the TGI (SN12C renal) was > 100 µM and the GI50 (RXF 393 renal) was 0.29 µM. The TGI (RXF 393 renal) was 13 µM, the GI50 (SK-MEL-28 melanoma) was > 100 µM and the TGI (SK-MEL-28 melanoma) was > 100 µM. For the same compound, the GI50 (TK-10 renal) was 23.2 µM, the TGI (TK-10 renal) was > 100 µM and the GI50 (NCI-H522 lung) was 0.577 µM. The TGI (NCI-H522 lung) was > 100 µM, the GI50 (HOP-92 NSCLC) was 27.5 µM and the TGI (HOP-92 NSCLC) was > 100 µM. The GI50 (SNB-19 CNS) was 60.3 µM, the TGI (SNB-19 CNS) was > 100 µM and the GI50 (HOP-62 NSCLC) was 0.498 µM. The TGI (HOP-62 NSCLC) was > 100 µM, the GI50 (OVCAR-8 ovarian) was 0.326 µM and the TGI (OVCAR-8 ovarian) was > 100 µM. The GI50 (SK-MEL-5 melanoma) was > 100 µM, the TGI (SK-MEL-5 melanoma) was > 100 µM and the GI50 (M14 melanoma) was 10.9 µM. The TGI (M14 melanoma) was > 100 µM, the GI50 (MDA-MB-435 melanoma) was > 100 µM and the TGI (MDA-MB-435 melanoma) was > 100 µM. For the same compound, the GI50 (NCI-H322M lung) was > 100 µM, the TGI (NCI-H322M lung) was > 100 µM and the GI50 (DU-145 prostate) was 0.376 µM. The TGI (DU-145 prostate) was > 100 µM, the GI50 (HT29 colon) was 0.632 µM and the TGI (HT29 colon) was > 100 µM. The GI50 (HS 578T breast) was 1.7 µM, the TGI (HS 578T breast) was 45 µM and the GI50 (CAKI-1 renal) was > 100 µM. The TGI (CAKI-1 renal) was > 100 µM, the GI50 (ACHN renal) was 3.26 µM and the TGI (ACHN renal) was > 100 µM. For the same compound, the GI50 (T-47D breast) was > 100 µM, the TGI (T-47D breast) was > 100 µM and the GI50 (HCT-116 colon) was 0.0447 µM. The TGI (HCT-116 colon) was > 100 µM, the GI50 (OVCAR-3 ovarian) was > 100 µM and the TGI (OVCAR-3 ovarian) was > 100 µM. For the same compound, the TGI (SR leukemia) was 0.0523 µM, the GI50 ([…]-0 renal) was 0.474 µM and the TGI (786-0 renal) was > 100 µM. For the same compound, the GI50 (CCRF-CEM leukemia) was 0.0835 µM, the TGI (CCRF-CEM leukemia) was 0.271 µM and the GI50 (A549 NSCLC) was 0.115 µM. For the same compound, the TGI (A549 NSCLC) was > 100 µM, the GI50 (MALME-3M melanoma) was > 100 µM and the TGI (MALME-3M melanoma) was > 100 µM. For the same compound, the GI50 (SW-620 colon) was 0.112 µM, the TGI (SW-620 colon) was > 100 µM and the GI50 (UACC-257 melanoma) was > 100 µM. The TGI (UACC-257 melanoma) was > 100 µM, the GI50 (HCT-15 colon) was 0.05 µM and the TGI (HCT-15 colon) was > 100 µM. For the same compound, the GI50 (COLO 205 colon) was 0.0809 µM, the TGI (COLO 205 colon) was > 100 µM and the GI50 (EKVX NSCLC) was > 100 µM. For the same compound, the TGI (EKVX NSCLC) was > 100 µM, the GI50 (LOX IMVI melanoma) was 0.0893 µM and the TGI (LOX IMVI melanoma) was > 100 µM.
